Tests used:
Type in all cases: ADME
[1] = target: T1, CYP2A6 (Homo sapiens, UniProt P11509); assay: Inhibition of CYP2A6 in human liver microsomes assessed as enzyme-mediated metabolite formation at 0.3 uM using coumarin as substrate incubated for 5 mins followed by NADPH addition measured after 30 mins by LC-MS/MS analysis relative to control; parameters: scale not given: the % may be the effect or the level left; conditions: probe coumarin, read-out: Activity
T1 sequence (P11509 whole entry): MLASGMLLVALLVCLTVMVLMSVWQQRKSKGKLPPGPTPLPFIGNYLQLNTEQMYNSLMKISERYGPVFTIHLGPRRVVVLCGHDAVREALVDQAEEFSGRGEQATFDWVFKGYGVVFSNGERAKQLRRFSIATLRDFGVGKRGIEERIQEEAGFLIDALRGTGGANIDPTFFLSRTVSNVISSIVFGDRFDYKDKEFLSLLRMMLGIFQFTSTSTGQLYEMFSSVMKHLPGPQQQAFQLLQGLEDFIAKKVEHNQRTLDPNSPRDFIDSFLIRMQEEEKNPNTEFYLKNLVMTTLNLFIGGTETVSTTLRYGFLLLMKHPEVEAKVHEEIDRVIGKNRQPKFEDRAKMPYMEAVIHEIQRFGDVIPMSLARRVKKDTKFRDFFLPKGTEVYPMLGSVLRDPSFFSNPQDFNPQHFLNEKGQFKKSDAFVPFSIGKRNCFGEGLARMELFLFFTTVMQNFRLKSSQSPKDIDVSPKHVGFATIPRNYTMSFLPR

[2] = target: T2, Cytochrome P450 1A2 (Homo sapiens, UniProt P05177); assay: Inhibition of CYP1A2 in human liver microsomes using phenacetin as substrate preincubated for 20 mins followed by substrate addition measured after 30 mins in presence of NADPH by LC-MS/MS analysis
T2 sequence (P05177 whole entry): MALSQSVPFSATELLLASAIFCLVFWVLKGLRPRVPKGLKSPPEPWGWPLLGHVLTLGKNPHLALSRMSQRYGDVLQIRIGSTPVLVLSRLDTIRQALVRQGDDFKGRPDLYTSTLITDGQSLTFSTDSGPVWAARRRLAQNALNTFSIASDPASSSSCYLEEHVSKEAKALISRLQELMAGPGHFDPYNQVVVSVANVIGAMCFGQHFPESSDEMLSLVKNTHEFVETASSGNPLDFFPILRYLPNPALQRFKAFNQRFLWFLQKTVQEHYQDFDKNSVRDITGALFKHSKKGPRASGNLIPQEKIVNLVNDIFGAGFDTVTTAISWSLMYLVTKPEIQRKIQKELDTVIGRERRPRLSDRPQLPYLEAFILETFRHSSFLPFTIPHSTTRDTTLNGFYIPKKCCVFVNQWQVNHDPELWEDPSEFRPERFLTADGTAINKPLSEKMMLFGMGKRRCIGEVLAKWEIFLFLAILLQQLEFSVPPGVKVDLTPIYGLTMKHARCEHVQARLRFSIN

[3] = target: T1, CYP2A6; assay: Inhibition of CYP2A6 in human liver microsomes assessed as enzyme-mediated metabolite formation at 30 uM using coumarin as substrate incubated for 5 mins followed by NADPH addition measured after 30 mins by LC-MS/MS analysis relative to control; parameters: scale not given: the % may be the effect or the level left; conditions: probe coumarin, read-out: Activity
[4] = target: T3, CYP2C9 (Homo sapiens, UniProt P11712); assay: Inhibition of CYP2C9 in human liver microsomes assessed as enzyme-mediated metabolite formation at 0.1 uM using diclofenac as substrate preincubated for 20 mins followed by substrate addition measured after 30 mins in presence of NADPH by LC-MS/MS analysis relative to control; parameters: scale not given: the % may be the effect or the level left; conditions: probe diclofenac, read-out: Activity
T3 sequence (P11712 whole entry): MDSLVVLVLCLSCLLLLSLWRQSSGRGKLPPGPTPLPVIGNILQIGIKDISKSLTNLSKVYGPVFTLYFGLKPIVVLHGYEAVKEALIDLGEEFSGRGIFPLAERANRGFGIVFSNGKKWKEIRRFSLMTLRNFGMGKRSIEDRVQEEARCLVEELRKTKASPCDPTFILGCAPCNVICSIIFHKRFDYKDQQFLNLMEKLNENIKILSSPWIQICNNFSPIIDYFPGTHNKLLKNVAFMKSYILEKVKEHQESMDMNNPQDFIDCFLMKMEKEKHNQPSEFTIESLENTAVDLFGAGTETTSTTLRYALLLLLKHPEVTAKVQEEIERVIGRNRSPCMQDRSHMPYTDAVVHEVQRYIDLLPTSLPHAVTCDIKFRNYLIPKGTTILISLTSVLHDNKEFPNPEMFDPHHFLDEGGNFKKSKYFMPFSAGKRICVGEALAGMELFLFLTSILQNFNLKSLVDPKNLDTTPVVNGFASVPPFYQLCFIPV

[5] = target: T4, CYP2C8 (Homo sapiens, UniProt P10632); assay: Inhibition of CYP2C8 in human liver microsomes assessed as enzyme-mediated metabolite formation at 3 uM using paclitaxel as substrate preincubated for 20 mins followed by substrate addition measured after 30 mins in presence of NADPH by LC-MS/MS analysis relative to control; parameters: scale not given: the % may be the effect or the level left; conditions: probe paclitaxel, read-out: Activity
T4 sequence (P10632 whole entry): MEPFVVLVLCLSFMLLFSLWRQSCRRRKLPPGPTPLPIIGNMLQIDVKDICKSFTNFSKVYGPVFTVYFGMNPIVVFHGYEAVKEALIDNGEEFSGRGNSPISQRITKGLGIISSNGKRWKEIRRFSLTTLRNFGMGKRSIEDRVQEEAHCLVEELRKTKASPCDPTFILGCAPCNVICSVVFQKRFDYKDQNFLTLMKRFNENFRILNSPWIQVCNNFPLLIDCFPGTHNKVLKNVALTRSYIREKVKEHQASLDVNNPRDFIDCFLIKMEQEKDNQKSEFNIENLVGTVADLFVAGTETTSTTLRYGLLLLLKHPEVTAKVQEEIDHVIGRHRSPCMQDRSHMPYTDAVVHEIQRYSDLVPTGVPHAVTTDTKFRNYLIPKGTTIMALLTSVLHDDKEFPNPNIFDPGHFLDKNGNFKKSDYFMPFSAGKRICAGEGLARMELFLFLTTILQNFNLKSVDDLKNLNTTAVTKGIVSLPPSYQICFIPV

[6] = target: T5, CYP2B6 (Homo sapiens, UniProt P20813); assay: Inhibition of CYP2B6 in human liver microsomes assessed as enzyme-mediated metabolite formation at 1 uM using bupropion as substrate incubated for 5 mins followed by NADPH addition measured after 30 mins by LC-MS/MS analysis relative to control; parameters: scale not given: the % may be the effect or the level left; conditions: probe bupropion, read-out: Activity
T5 sequence (P20813 whole entry): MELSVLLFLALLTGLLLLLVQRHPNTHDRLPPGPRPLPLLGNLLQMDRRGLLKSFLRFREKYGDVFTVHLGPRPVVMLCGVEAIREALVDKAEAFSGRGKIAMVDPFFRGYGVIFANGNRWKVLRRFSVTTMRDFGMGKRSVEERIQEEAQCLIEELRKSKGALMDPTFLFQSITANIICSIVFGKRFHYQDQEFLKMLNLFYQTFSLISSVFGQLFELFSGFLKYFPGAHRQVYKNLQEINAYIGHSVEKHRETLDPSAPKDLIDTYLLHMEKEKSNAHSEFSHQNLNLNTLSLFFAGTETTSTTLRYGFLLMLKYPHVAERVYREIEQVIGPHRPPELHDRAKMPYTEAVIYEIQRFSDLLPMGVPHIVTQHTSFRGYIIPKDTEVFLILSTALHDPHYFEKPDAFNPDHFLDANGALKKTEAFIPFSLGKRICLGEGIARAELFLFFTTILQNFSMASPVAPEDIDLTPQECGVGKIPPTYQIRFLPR

[7] = target: T5, CYP2B6; assay: Inhibition of CYP2B6 in human liver microsomes assessed as enzyme-mediated metabolite formation at 10 uM using bupropion as substrate incubated for 5 mins followed by NADPH addition measured after 30 mins by LC-MS/MS analysis relative to control; parameters: scale not given: the % may be the effect or the level left; conditions: probe bupropion, read-out: Activity
[8] = target: T3, CYP2C9; assay: Inhibition of CYP2C9 in human liver microsomes assessed as enzyme-mediated metabolite formation at 10 uM using diclofenac as substrate preincubated for 20 mins followed by substrate addition measured after 30 mins in presence of NADPH by LC-MS/MS analysis relative to control; parameters: scale not given: the % may be the effect or the level left; conditions: probe diclofenac, read-out: Activity
[9] = target: T3, CYP2C9; assay: Inhibition of CYP2C9 in human liver microsomes assessed as enzyme-mediated metabolite formation at 10 uM using diclofenac as substrate incubated for 5 mins followed by NADPH addition measured after 30 mins by LC-MS/MS analysis relative to control; parameters: scale not given: the % may be the effect or the level left; conditions: probe diclofenac, read-out: Activity

activity at 0.5 h, 0.3 µM [1]: 83.8%
IC50 [2]: 19.6 µM
activity at 0.5 h, 30 µM [3]: 77.4%
activity at 0.5 h, 0.1 µM [4]: 76%
activity at 0.5 h, 3 µM [5]: 56.6%
activity at 0.5 h, 1 µM [6]: 63.2%
activity at 0.5 h, 10 µM [7]: 53.9%
activity at 0.5 h, 10 µM [8]: 60.8%
activity at 0.5 h, 10 µM [9]: 52.3%
Compound: CCCCCCCC(=O)CCc1ccc(O)c(OC)c1
